What follows are compounds tested against T1, Human (6-His)Sortilin (Homo sapiens, UniProt Q99523) (assay: Human Sortilin GCI (Grating-Coupled Interferometry) binding assay). Details: Creoptix WAVE-RAPID, single concentration (usually 1 µM, 10 µM or 100 µM), immobilised Human (6-His)Sortilin, 1:1 kinetic binding model.
T1 construct: purchased RnD Systems
T1 sequence (Q99523 78-755 limits assumed): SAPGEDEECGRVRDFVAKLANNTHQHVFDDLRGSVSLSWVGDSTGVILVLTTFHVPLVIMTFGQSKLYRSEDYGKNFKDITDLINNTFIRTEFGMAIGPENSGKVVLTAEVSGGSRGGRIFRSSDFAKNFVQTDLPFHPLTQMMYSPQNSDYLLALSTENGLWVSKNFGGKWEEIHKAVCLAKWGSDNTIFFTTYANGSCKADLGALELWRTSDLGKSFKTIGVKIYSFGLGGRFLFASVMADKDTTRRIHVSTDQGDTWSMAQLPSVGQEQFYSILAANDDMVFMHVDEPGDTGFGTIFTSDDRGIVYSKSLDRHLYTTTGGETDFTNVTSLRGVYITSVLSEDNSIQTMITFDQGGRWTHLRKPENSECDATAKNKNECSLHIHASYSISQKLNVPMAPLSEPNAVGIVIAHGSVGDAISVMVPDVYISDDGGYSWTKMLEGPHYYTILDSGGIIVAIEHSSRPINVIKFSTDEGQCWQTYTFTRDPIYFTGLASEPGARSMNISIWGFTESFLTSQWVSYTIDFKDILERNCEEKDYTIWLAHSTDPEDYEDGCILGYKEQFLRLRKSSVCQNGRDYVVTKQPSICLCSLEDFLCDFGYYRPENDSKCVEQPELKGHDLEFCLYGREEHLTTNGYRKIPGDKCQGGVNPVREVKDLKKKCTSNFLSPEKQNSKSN
`CC(C)(C)CCC(Nc1ncnc2cc(Br)ccc12)c1nn[nH]n1` (racemic) [Example 90, [4,4-dimethyl-1-(2H-tetraazol-5-yl)pentyl](7-bromo-4-quinazolinyl)amine] showed a Kd of 0.284 µM.
`CC(C)CCC(Nc1cnc2ccccc2c1)c1nn[nH]n1` (racemic) [Example 55, [4-methyl-1-(2H-tetraazol-5-yl)pentyl]-3-quinolylamine] showed a Kd of 10.5 µM.
`CC(C)(C)CC[C@H](Nc1cncc2ccccc12)C(=O)O` [Example 29, (S)-2-(isoquinolin-4-ylamino)-5,5-dimethylhexanoic acid] showed a Kd of 0.0578 µM.
`CC(C)(C)CC(Nc1ncccn1)c1nn[nH]n1` (racemic) [Example 45, N-2-pyrimidinyl[3,3-dimethyl-1-(2H-tetraazol-5-yl)butyl]amine] showed a Kd of 91.1 µM.
`Cc1ccc2ncnc(NC(CCC(C)(C)C)c3nn[nH]n3)c2c1` (racemic) [Example 83, [4,4-dimethyl-1-(2H-tetraazol-5-yl)pentyl](6-methyl-4-quinazolinyl)amine] gave a Kd of 0.251 µM.
Work on `CC(C)CCC(Nc1cncc2ccccc12)c1nn[nH]n1` (racemic) [Example 64, [4-methyl-1-(2H-tetraazol-5-yl)pentyl]-4-isoquinolylamine] yielded a Kd of 8.71 µM.
In the case of “N-phenyl[4,4-dimethyl-1-(2H-tetraazol-5-yl)pentyl]amine [Example 39]”, the Kd is reported as 2.84 µM.
`CC(C)CCC(Nc1ncnc2ccc(F)cc12)c1nn[nH]n1` (racemic) [Example 81, [4-methyl-1-(2H-tetraazol-5-yl)pentyl](6-fluoro-4-quinazolinyl)amine] showed a Kd of 2.22 µM.
`CC(C)(C)CCC(Nc1cccc2ccccc12)c1nn[nH]n1` (racemic) [Example 35, [4,4-dimethyl-1-(2H-tetraazol-5-yl)pentyl]-1-naphthylamine] was tested, and the Kd was 1.07 µM.
Work on `COc1ccc2ncnc(NC(CCC(C)C)c3nn[nH]n3)c2c1` (racemic) [Example 79, [4-methyl-1-(2H-tetraazol-5-yl)pentyl](6-methoxy-4-quinazolinyl)amine] yielded a Kd of 19.5 µM.
With `CC(C)CC(Nc1cncnc1)c1nn[nH]n1` (racemic) [Example 49, [3-methyl-1-(2H-tetraazol-5-yl)butyl]-5-pyrimidinylamine] the Kd was 98 µM.
With `CC(C)CC(Nc1ccncn1)c1nn[nH]n1` (racemic) [Example 105, [3-methyl-1-(2H-tetraazol-5-yl)butyl]-4-pyrimidinylamine] the Kd was 187 µM.
`CC(C)CC(Nc1cncc2ccccc12)c1nn[nH]n1` (racemic) [Example 46, [3-methyl-1-(2H-tetraazol-5-yl)butyl]-4-isoquinolylamine] gave a Kd of 3.78 µM.
`CC(C)(C)CC(Nc1cncnc1)c1nn[nH]n1` (racemic) [Example 50, N-5-pyrimidinyl[3,3-dimethyl-1-(2H-tetraazol-5-yl)butyl]amine] gave a Kd of 28 µM.
For `Cc1ccc2c(NC(CCC(C)(C)C)c3nn[nH]n3)ncnc2c1` (racemic) [Example 84, [4,4-dimethyl-1-(2H-tetraazol-5-yl)pentyl](7-methyl-4-quinazolinyl)amine], the Kd was 0.461 µM.
Compound `Cn1ccc2cc(NC(CC(C)(C)C)c3nn[nH]n3)cnc21` (racemic) [Example 52, [3,3-dimethyl-1-(2H-tetraazol-5-yl)butyl](1-methyl-1H-1,7-diazainden-5-yl)amine] has a Kd of 3.25 µM.
In the case of `CC(C)(C)CC(Nc1cccnc1)c1nn[nH]n1` (racemic) [Example 62, N-3-pyridyl[3,3-dimethyl-1-(2H-tetraazol-5-yl)butyl]amine], the Kd is reported as 32.1 µM.
`CC(C)(C)CCC(Nc1cnc2ccccc2c1)c1nn[nH]n1` (racemic) [Example 33, [4,4-dimethyl-1-(2H-tetraazol-5-yl)pentyl]-3-quinolylamine] showed a Kd of 3.43 µM.
Work on `Cn1ccc2cc(NC(CCC(C)(C)C)c3nn[nH]n3)cnc21` (racemic) [Example 53, [4,4-dimethyl-1-(2H-tetraazol-5-yl)pentyl](1-methyl-1H-1,7-diazainden-5-yl)amine] yielded a Kd of 0.735 µM.
Compound `CC(C)(C)CCC(Nc1ccc2ccccc2n1)c1nn[nH]n1` (racemic) [Example 34, [4,4-dimethyl-1-(2H-tetraazol-5-yl)pentyl]-2-quinolylamine] has a Kd of 1.83 µM.
Compound `COc1ccc2ncnc(NC(CCC(C)(C)C)c3nn[nH]n3)c2c1` (racemic) [Example 78, [4,4-dimethyl-1-(2H-tetraazol-5-yl)pentyl](6-methoxy-4-quinazolinyl)amine] has a Kd of 1.49 µM.
`CC(C)(C)CC(Nc1ncnc2ccccc12)c1nn[nH]n1` (racemic) [Example 77, [3,3-dimethyl-1-(2H-tetraazol-5-yl)butyl]-4-quinazolinylamine] gave a Kd of 5.41 µM.
`CC(C)CC(Nc1cnc2ccccc2c1)c1nn[nH]n1` (racemic) [Example 56, [3-methyl-1-(2H-tetraazol-5-yl)butyl]-3-quinolylamine] gave a Kd of 44.9 µM.
With `CC(C)(C)CC[C@@H](Nc1cccnc1)c1nn[nH]n1` (single isomer, unassigned) [Example 100] the Kd was 6.22 µM.
For `CC(C)(C)CC(Nc1ccccc1)c1nn[nH]n1` (racemic) [Example 43, N-phenyl[3,3-dimethyl-1-(2H-tetraazol-5-yl)butyl]amine], the Kd was 17.7 µM.
Compound `CC(C)(C)CCC(Nc1ncccn1)c1nn[nH]n1` (racemic) [Example 47, N-2-pyrimidinyl[4,4-dimethyl-1-(2H-tetraazol-5-yl)pentyl]amine] has a Kd of 7.82 µM.
Work on `CC(C)(C)CC[C@H](Nc1ccc2ccccc2n1)c1nn[nH]n1` (single isomer, unassigned) [Example 96] yielded a Kd of 0.912 µM.
For `CC(C)CC(Nc1ccncc1)c1nnn[nH]1` (racemic) [Example 104, N-(3-methyl-1-(1H-tetrazol-5-yl)butyl)pyridin-4-amine], the Kd was 74.2 µM.
`CC(C)(C)CC(Nc1cc2ccccc2cn1)c1nn[nH]n1` (racemic) [Example 60, [3,3-dimethyl-1-(2H-tetraazol-5-yl)butyl]-3-isoquinolylamine] was tested, and the Kd was 5.9 µM.
In the case of `CC(C)CCC(Nc1ncccn1)c1nn[nH]n1` (racemic) [Example 57, N-2-pyrimidinyl[4-methyl-1-(2H-tetraazol-5-yl)pentyl]amine], the Kd is reported as 123 µM.
With `CC(C)CCC(Nc1cccc2ccccc12)c1nn[nH]n1` (racemic) [Example 38, [4-methyl-1-(2H-tetraazol-5-yl)pentyl]-1-naphthylamine] the Kd was 8.75 µM.
`Cc1ccc2ncnc(NC(CCC(C)C)c3nn[nH]n3)c2c1` (racemic) [Example 80, [4-methyl-1-(2H-tetraazol-5-yl)pentyl](6-methyl-4-quinazolinyl)amine] showed a Kd of 3.88 µM.
For `CC(C)CCC(Nc1ncnc2ccccc12)c1nnn[nH]1` (racemic) [Example 101, N-(4-methyl-1-(1H-tetrazol-5-yl)pentyl)quinazolin-4-amine], the Kd was 18.3 µM.
`CC(C)(C)CC(Nc1ccccn1)c1nn[nH]n1` (racemic) [Example 61, N-2-pyridyl[3,3-dimethyl-1-(2H-tetraazol-5-yl)butyl]amine] was tested, and the Kd was 60 µM.
`CC(C)(C)CC[C@@H](Nc1ccc2ccccc2n1)c1nn[nH]n1` (single isomer, unassigned) [Example 95] showed a Kd of 6.07 µM.
Compound `CC(C)CC(Nc1ccc2ccccc2n1)c1nn[nH]n1` (racemic) [Example 40, [3-methyl-1-(2H-tetraazol-5-yl)butyl]-2-quinolylamine] has a Kd of 22 µM.
In the case of `CC(C)(C)CCC(Nc1ncnc2cnccc12)c1nn[nH]n1` (racemic) [Example 88, [4,4-dimethyl-1-(2H-tetraazol-5-yl)pentyl]-1,3,7-triaza-4-naphthylamine], the Kd is reported as 0.426 µM.
With `CC(C)(C)CC[C@H](Nc1cccnc1)c1nn[nH]n1` (single isomer, unassigned) [Example 99] the Kd was 1.56 µM.
`CC(C)CC(Nc1ncnc2ccccc12)c1nn[nH]n1` (racemic) [Example 103, [3-methyl-1-(2H-tetraazol-5-yl)butyl]-4-quinazolinylamine] showed a Kd of 25.5 µM.
`CC(C)(C)CCC(Nc1ncnc2ccc(C(F)(F)F)cc12)c1nn[nH]n1` (racemic) [Example 86, [4,4-dimethyl-1-(2H-tetraazol-5-yl)pentyl][6-(trifluoromethyl)-4-quinazolinyl]amine] was tested, and the Kd was 1.49 µM.
Work on `CC(C)(C)CCC(Nc1ncnc2cc(F)ccc12)c1nn[nH]n1` (racemic) [Example 82, [4,4-dimethyl-1-(2H-tetraazol-5-yl)pentyl](7-fluoro-4-quinazolinyl)amine] yielded a Kd of 0.316 µM.
Compound `CC(C)CC(Nc1ncccn1)c1nn[nH]n1` (racemic) [Example 65, [3-methyl-1-(2H-tetraazol-5-yl)butyl]-2-pyrimidinylamine] has a Kd of 98.6 µM.
`CC(C)CC(Nc1cc2ccccc2cn1)c1nn[nH]n1` (racemic) [Example 42, [3-methyl-1-(2H-tetraazol-5-yl)butyl]-3-isoquinolylamine] showed a Kd of 3.17 µM.
Work on `CC(C)(C)CC(Nc1cncc2ccccc12)c1nn[nH]n1` (racemic) [Example 48, [3,3-dimethyl-1-(2H-tetraazol-5-yl)butyl]-4-isoquinolylamine] yielded a Kd of 2.47 µM.
In the case of `CC(C)CC(Nc1ccccn1)c1nn[nH]n1` (racemic) [Example 66, [3-methyl-1-(2H-tetraazol-5-yl)butyl]-2-pyridylamine], the Kd is reported as 179 µM.
